Values quoted from earlier work, collected in patent US20180327482A1, “METHODS AND COMPOSITIONS FOR THE TREATMENT OF HCMV” (priority 2013, published 2018).

System: cells latently infected with HCMV
Details: Weekes et al., Science 340:199-202 (2013)

In the case of `CC[C@]1(O)C[C@H]2CN(CCc3c([nH]c4ccccc34)[C@@](C(=O)OC)(c3cc4c(cc3OC)N(C=O)[C@H]3[C@@](O)(C(=O)OC)[C@H](OC(C)=O)[C@]5(CC)C=CCN6CC[C@]43[C@@H]65)C2)C1` [Vincristine], the “Elimination of cells latently infected with HCMV” value is listed as “can be used therapeutically to eliminate cells latently infected with HCMV”.
